{
  "source": "the pKa sets of Baltruschat and Czodrowski (2020)",
  "data": [
    {"values": [
      {"molecule": "CN(C)C(C)(C)CCCc1ccc(C(C)(C)C)cc1", "pKa": 10.4},
      {"molecule": "CCCCN", "pKa": 10.7},
      {"molecule": "NCC(F)F", "pKa": 7.3},
      {"molecule": "FC1CCNCC1", "pKa": 9.4},
      {"molecule": "CN(C)CC(C)(C)CCc1ccc(C(C)(C)C)cc1", "pKa": 9.4},
      {"molecule": "NCCCF", "pKa": 9.9},
      {"molecule": "CN1CCCCC1", "pKa": 10.1},
      {"molecule": "CCCCN(C)C", "pKa": 10.2},
      {"molecule": "CN(C)CCCC(C)(C)c1ccc(C(C)(C)C)cc1", "pKa": 9.8},
      {"molecule": "FC1(Cc2ccccc2)CCN(CCCc2c[nH]c3ccc(-n4cnnc4)cc23)CC1", "pKa": 8.8},
      {"molecule": "CN(C)CCCCc1ccc(C(C)(C)C)cc1", "pKa": 9.9},
      {"molecule": "CN(C)C", "pKa": 9.8},
      {"molecule": "CN(C)CC(F)(F)F", "pKa": 4.8},
      {"molecule": "NCCC(F)(F)F", "pKa": 8.7},
      {"molecule": "FC1CCCNC1", "note": "(stereo not drawn)", "pKa": 9.3},
      {"molecule": "CC(=O)N1CCNCC1", "pKa": 7.9},
      {"molecule": "c1ccc(CC2CCN(CCCc3c[nH]c4ccc(-n5cnnc5)cc34)CC2)cc1", "pKa": 9.7},
      {"molecule": "CCN(C)C", "pKa": 10.2},
      {"molecule": "NCCCC(F)(F)F", "pKa": 9.7},
      {"molecule": "FC1(F)CCCNC1", "pKa": 7.4},
      {"molecule": "FC(Cc1c[nH]c2ccc(-n3cnnc3)cc12)CN1CCC(Cc2ccccc2)CC1", "note": "(stereo not drawn)", "pKa": 8.7},
      {"molecule": "FC(F)(Cc1c[nH]c2ccc(-n3cnnc3)cc12)CN1CCC(Cc2ccccc2)CC1", "pKa": 6.7},
      {"molecule": "FC1(F)CCNCC1", "pKa": 8.5}
    ]}
  ]
}
